# Reference: patent US20250388572A1, “USE OF HPK1 INHIBITOR IN PREVENTION AND/OR TREATMENT OF HUMAN PATHOGEN INFECTION” (priority 2022, published 2025)
# Legend:
# [1] = mouse, microsomes, 1 h, 10 µM
# Procedure: The procedure for identifying microsomal metabolites is as follows:
# The compounds (test compounds and their numbers are shown below, among which compounds A1 and B1 are prepared by referring to the relevant method disclosed in CN110396087A) were weighed and dissolved into dimethyl sulfoxide to prepare a 20 mM solution. The compound stock solution was diluted with 50% acetonitrile in water (v/v) to a concentration of 1.0 mM as a working solution. Liver microsomes (20 mg/mL) were diluted to 1.27 mg/mL with 50 mM dipotassium hydrogen phosphate buffer as a liver microsome working solution. Reduced coenzyme was weighed and dissolved in 3307 μL of phosphate buffer (50 mM) to 5.0 mM as a reduced coenzyme working solution. For T=60 minutes samples, 4 μL of test working solution (1.0 mM) was added, followed by 316 μL of liver microsome working solution (1.27 mg/mL), and finally, 80 μL of reduced coenzyme working solution was added to start the reaction. For T=0 minutes samples, 316 μL of liver microsome working solution (1.27 mg/mL) was added and then 80 μL of reduced coenzyme working solution was added to start the reaction, without test solution incubation. After incubation at 37° C. for 60 minutes, 1200 μL of stop solution was added to stop the enzyme reaction. For T=0 minute samples, 4 μL of test working solution (1.0 mM) was added. The sample plate was placed on a vortexer and vortexed at 600 rpm for 5 minutes. Then, the sample plate was centrifuged at 4000 rpm for 10 minutes. The supernatant was removed, mixed, and dried at room temperature with nitrogen. The residue dried with nitrogen was redissolved in 300 μL of 10% acetonitrile (0.1% FA) solvent and then centrifuged at 4000 rpm for 15 minutes. The supernatant was transferred to a detection plate for mass spectrometry. Mass spectrometry was performed using LC/Q-Exactive plus.
# 7-Ethoxycoumarin (10 μM) was selected as a positive control compound and operated in parallel with the compounds.
# [2] = test system: HSV virus; test: Pharmacodynamic evaluation for viral keratitis (HSV) in mice; format: in vivo, C57 mice; conditions: for corneal perforation: right eye, 2 weeks, control: 2 eyes perforated from day 5; for clinical score at the highest peak of the disease (day 5): control group above 6
# Procedure: Fifteen C57 mice (body weight: 22 g to 25 g), aged 8 weeks, were subjected to viral keratitis modeling in their right eyes. During the modeling process, a sterile 25G needle was used to make […]parallel scratches on the cornea of the right eye of all the animals. The scratch depth should be in the superficial zone and cannot penetrate the stroma layer. The scratches between each eyeball should be moderately uniform in depth and evenly distributed in density. Then, 4 μl of well-mixed HSV virus solution was dripped using a fiber syringe (titer: 2.0*10^6 PFU/ml) to complete the modeling. The day of modeling was set as DO. One day after modeling, the animals' right eyes were scored for viral keratitis, and 9 mice with uniform modeling were selected for the experiment. These 9 mice were randomly divided into 3 groups: control group, 1% A2 group and 0.2% A2 group, with 3 mice per group. According to the grouping, each animal's right eye surface was treated with the corresponding drugs, vehicle or 3024 eye drops with different concentrations, once every other day. On the day of administration, each eye was given 3 drops of 10 μl each time for 2 consecutive weeks. The degree of keratitis lesions was scored and analyzed on days 1, 3, 5, 7, 9, 11 and 14 after modeling.
# Grading (i.e., scoring) was performed based on the three criteria of corneal ulcer area, depth and shape, and the total score was recorded by adding.
# (1) Corneal ulcer area: Score 1=1% to 25%; Score 2=26% to 50%; Score 3=51% to 75%; and Score 4=76% to 100%.
# (2) Lesion depth: Score 1=mild corneal opacity with clear iris texture; Score 2=off-white superficial corneal opacity with visible iris texture; Score 3=off-white deep corneal opacity with unclear iris texture; and Score 4=off-white full-layer dense corneal opacity with unclear anterior chamber.
# (3) Corneal ulcer shape: Score 1=mild surface irregularity; Score 2=rough corneal surface with mild swelling; Score 3=severe edema with swelling descemet's membrane; and Score 4=corneal perforation or severe swelling descemet's membrane.
# (4) If there is hypopyon and/or hyphema, the score is increased by 1.
# [3] = test system: SARS-Cov-2 virus; test: Pharmacodynamic evaluation for Covid 19 in hamsters; format: in vivo, Syrian golden hamsters
# Procedure: A total of 20 wild-type Syrian golden hamsters, aged 6-8 weeks, with half male and half female, were randomly divided into two groups: control group (n=4), and therapy group consisting of 5 mg/kg and 20 mg/kg groups, with 8 mice per group. Starting from day 0 (DO), the hamsters in the therapy group were given A2 orally at a total daily dose of 5 mg/kg or 20 mg/kg, and the control group was given an equal amount of blank drug orally daily. Meanwhile, on day 0, all hamsters were anesthetized and then inoculated intranasally with 100 uL of 1.375×10^6 PFU/mL SARS-Cov-2 virus. Clinical manifestations and body weight were monitored daily. At the end of the study, tissues (e.g., lungs) were collected and weighed, and virus RNA and infectious virus were then quantified.
# [4] = test system: H1N1 (PR8 strain); test: Pharmacodynamic evaluation for H1N1 in mice; format: in vivo, C57BL/6 mice; conditions: 3 mg/kg, oral
# Procedure: Six to eight-week-old female SPFC 57BL/6 mice (VitalRiver Laboratory Animal Technology Co., Ltd., SCXK (Beijing) 2016-0006, Beijing version) were infected with H1N1 (PR8 strain) and stimulated intranasally with 1×10^4 TCID50 virus nose drops. Mice were randomly divided into a therapy group and a control group. The therapy group was given 3 mg/kg of A2 orally, and the control group was given an equal amount of blank drug orally. The weight loss of mice in all groups was monitored daily.
# [5] = test system: MHV-A59 virus; test: Pharmacodynamic evaluation for MHV, low-dose virus group; format: in vivo, C57BL/6 mice; conditions: 4×10^5 PFU, day 8, control 19.19%
# Procedure: The effect of A2 on the prevention and treatment of MHV was investigated.
# Low-dose virus group: 21 male SPF grade C57BL/6 mice, aged 4 weeks, were divided into three groups: control group, precaution group and therapy group. These mice were anesthetized and then injected intrahepatically (i.h.) with 100 μL of DMEM containing 4×10^5 PFU MHV-A59 virus. The precaution group was given the first dose of A2 at 10 mg/kg 24 hours before the challenge, and the therapy group was given the first dose of A2 at 10 mg/kg 24 hours after the challenge, followed by daily continuous administration (both the precaution group and the therapy group were given a daily dose of 10 mg/kg). The infected mice were monitored daily. Blood samples were collected from the retro-orbital venous plexus on day 0 and day 4 after infection, and serum was extracted to detect alanine aminotransferase (ALT)/alanine aminotransferase (GPT) levels. On day 8 after infection, all groups of mice were sacrificed. Liver tissues were taken for virus titer determination and histological analysis, and spleen tissues were taken for virus specific T proliferation assay.
smiles,measurement,setting,value
"[2H]C([2H])([2H])N1CCC(n2cc(-c3cnc(N)c(OCc4cccc(C#CC(C)(C)O)c4)c3)cn2)CC1 [Compound A2, 4-(3-(((2-amino-5-(1-(1-trideuteriomethylpiperidin-4-yl)-1H-pyrazol-4-yl)pyridin-3-yl)oxy)methyl)phenyl)-2-methylbut-3-yn-2-ol]",remaining percentage of the parent cores after 60 min,[1],55.0%
same,keratitis lesion scores vs model control group,"[2]; 0.2% eye drops for 2 weeks, P<0.01",statistically different
same,corneal perforation,[2]; 0.2% eye drops,no corneal perforation
same,clinical score at the highest peak of the disease (day 5),[2]; 0.2% eye drops,less than 6
same,corneal neovascularization scoring,"[2]; 1% eye drops (suspension), control group above 1",below 0.5
same,keratitis lesion scores vs model control group,"[2]; 1.0% eye drops for 2 weeks, P<0.05",statistically different
same,corneal perforation,[2]; 1% eye drops,no corneal perforation
same,clinical score at the highest peak of the disease (day 5),[2]; 1% eye drops,less than 6
same,body weight of SARS-Cov-2 infected hamsters,"[3]; 20 mg/kg daily, oral",gained weight at a much faster rate
same,lung weight normalized to total body weight,"[3]; all A2 dose groups (5 mg/kg and 20 mg/kg daily, oral)",decreased
same,survival rate of H1N1-infected mice,[4],significantly higher than that of the blank control group
same,average proliferation rate of spleen cells (virus specific T cell proliferation),"[5]; precaution group, 10 mg/kg daily from 24 hours before challenge",28.18%
same,average proliferation rate of spleen cells (virus specific T cell proliferation),"[5]; therapy group, 10 mg/kg daily from 24 hours after challenge",52.95%
